Measured values: patent US12582649B2, “Compositions and methods for hair follicle regeneration” (Washington University, priority 2020, dated 2026)
“Also recorded” adds a separate entry of the source.

Key:
[1] = tested on: cultured human hair follicles; conditions: cultured human hair follicles ex vivo; cited from earlier work
[2] = tested on: Bmp6, Fgf18, Fgf7, Wnt16 and Nog mRNA; assay: Quantitative RT-PCR of whole skin lysates for anagen-inhibiting and anagen-promoting factors; type: in vivo, mice
Protocol: (§1) The second telogen of C57BL/6J mice starts at day 49 after birth and it will last around 5 weeks (Muller-Rover et al., 2001). On day 48 after birth, the mice were shaved. On day 49 after birth, wt and Trpv4^−/− mice were intradermally injected with 30-μM GSK1016790A (GSK101, a selective TRPV4 agonist) (50 μl), which is diluted in saline from the 100 mM stock solution. GSK2193874 (GSK219, a selective TRPV4 antagonist) (25 mg·kg^−1, 200 μl dilution in saline from 50 mg·ml^−1 stock solution) (Thorneloe et al., 2012) or PD98059 (10 mg·kg^−1, 200 μl dilution in saline from 37.5 mg·ml^−1 stock solution) was applied through intraperitoneal injection on day 48 after birth or 1 hour prior to GSK1016790A injection. Insulin syringes with 30-G needle (UltiCare) were used for intradermal injection and 1-ml Sub-Q syringes with 26-G needle (BD) were used for intraperitoneal injection. Seventeen days after GSK1016790A injection, the mice were killed and the skin samples of the injection area were collected for analysis. In mice with newly generated hair, generally, there was a small patch of skin with dark color and longer hair shaft at the injection sites compared with that in the surrounding area.
For real-time PCR, skin sample was collected 24 h after GSK1016790A injection. Total RNA was extracted from mouse skin tissue using RNeasy kit (Qiagen, Germantown, MD, […]) according to the manufacturer's instructions. RNA was treated with DNase I (Invitrogen, Carlsbad, CA, USA), and the cDNA was synthesized in vitro using ThermoScript® RT-PCR System kit (Invitrogen). Reactions were carried out in a volume of 20 μl per reaction containing 10-μl SYBR Green master mix (2×) (Roche, Indianapolis, IN, USA), 0.5-μl cDNA, 1.2-μl 5-μM primer mix, and 8.3-μl water using StepOnePlus real-time PCR system (Applied Biosystems, Foster City, CA, USA). Relative expression of genes was normalized to GAPDH and calculated using the 2^−ΔΔct methods.

ERK1/2 = ERK1/2 phosphorylation in skin (western blot, immunofluorescence); type: in vivo, mice; conditions: for effect of pretreatment on GSK1016790A-induced ERK1/2 phosphorylation: intraperitoneal pretreatment one hour before GSK1016790A, skin harvested 15 min after
Protocol: as §1, with “Seventeen days after GSK1016790A injection, the mice were killed and the skin samples of the injection area were collected for analysis.” left out
(§2) Dorsal skin samples were fixed overnight at 4° C. in Zamboni's fixative (2% paraformaldehyde, 15% [v/v] saturated picric acid, 0.1-M PB, pH 7.3), dehydrated in ethanol, embedded in paraffin and sectioned at 10 μm. Haematoxylin and eosin (H&E) staining was performed according to standard protocols to analyze the hair follicle cycle stages as described, including the length of the hair follicle, the size, and location of dermal papilla and the position of the hair shaft and the inner root sheath (Muller-Rover et al., 2001). For immunofluorescence detection, sections were deparaffinized, rehydrated, and subjected to antigen retrieval in 10-mM citrate buffer (pH 6.0). […]
The skin was lysed in RIPA lysis and extraction buffer (Thermo Fisher Scientific, USA). Following cell protein quantitation, 10 μg of protein per sample were subjected to 12% SDS-PAGE. […]

hair follicles [3] = assay: Hair follicle regeneration / new hair growth after a single intradermal injection in telogen back skin; type: in vivo, mice
Protocol: as §1
Dorsal skin samples were fixed overnight at 4° C. in Zamboni's fixative (2% paraformaldehyde, 15% [v/v] saturated picric acid, 0.1-M PB, pH 7.3), dehydrated in ethanol, embedded in paraffin and sectioned at 10 μm. Haematoxylin and eosin (H&E) staining was performed according to standard protocols to analyze the hair follicle cycle stages as described, including the length of the hair follicle, the size, and location of dermal papilla and the position of the hair shaft and the inner root sheath (Muller-Rover et al., 2001). For immunofluorescence detection, sections were deparaffinized, rehydrated, and subjected to antigen retrieval in 10-mM citrate buffer (pH 6.0). After blocking, sections were stained with primary antibody against Ki67 (1:1,000; Thermo Fisher Scientific, Cat #PA1-29503, RRID: AB_1955602), phosphop-p44/42 MAPK (1:200; Cell Signaling Technology, Cat #4370S, RRID: AB_2315112), p44/42 MAPK (1:1,000; Cell Signaling Technology, Cat #4695, RRID: AB_390779), keratin 14 (1:1,000; BioLegend, […], RRID: AB_2616962) and keratin 15 (1:1,000; BioLegend, Cat #833901, RRID: AB_2564970) at 4° C. overnight in a humid chamber, followed by incubation for 1 h at room temperature (RT) with Cy3-conjugated secondary antibody (1:500; Jackson ImmunoResearch, Cat #111-005-003, RRID: AB_2337913) and Alexa Fluor 488-conjugated secondary antibody (1:500; Jackson ImmunoResearch, Cat #703-005-155, RRID: AB_2340346). Nuclei were stained with DAPI (SouthernBiotech). The Immuno-related procedures used comply with the recommendations made by the British Journal of Pharmacology Alexander et al., 2018.

[4] = tested on: human epidermal keratinocytes HaCaT cells; conditions: cited from earlier work
hair follicles [5] = assay: Topical application on tape-stripped shaved back skin, hair growth; type: in vivo, mice
Text: FIG. 10. […] Images were taken on day 12 after GSK101 treatment.
A TRPV4-dependent increase in hair growth was observed (FIG. 10).
Tape stripping was used to remove the stratum corneum to facilitate GSK101 entry into the skin. The agent can be applied with no additional agent or skin treatment method. The effect was removed by genetic ablation of the TRPV4 function.

[6] = tested on: hair follicle keratinocytes; assay: Ki67 immunofluorescence staining of back skin sections (proliferation of hair follicle keratinocytes and stem cells); type: in vivo; conditions: Trpv4+/+ mice, 48 h after single intradermal injection, vs vehicle
Protocol: as §1, with “Seventeen days after GSK1016790A injection, the mice were killed and the skin samples of the injection area were collected for analysis.” left out
Dorsal skin samples were fixed overnight at 4° C. in Zamboni's fixative (2% paraformaldehyde, 15% [v/v] saturated picric acid, 0.1-M PB, pH 7.3), dehydrated in ethanol, embedded in paraffin and sectioned at 10 μm. […]

TRPV4 = biological target: T1, TRPV4 (Mus musculus, UniProt Q9EPK8); assay: Normal hair follicle cycling under pharmacological inhibition of TRPV4 (H&E of back skin); type: in vivo; conditions: Trpv4+/+ mice treated with GSK219
T1 construct: back skin sections from Trpv4^+/+ mice, Trpv4^+/+ mice treated with GSK219 and Trpv4^−/− mice; from tissue; host or cells: back skin of living wild-type C57BL/6J (Trpv4+/+) mice
Protocol: FIG. 6. Top: hair growth cycle in mice. Bottom: representative images of hematoxylin and eosin (H&E) staining of back skin sections from Trpv4^+/+ mice, Trpv4^+/+ mice treated with GSK219 and Trpv4^−/− mice on Day 15, 21, 36, 40, 49. Scale bar=100 μm.
as §2

[7] = Cre+ K14Cre, Trpv4f/f mice vs wt
[8] = Cre+ K14Cre, Trpv4f/f mice, after injection
[9] = Trpv4+/+ mice, whole skin, 24 h after injection

T1 sequence (Q9EPK8 whole entry): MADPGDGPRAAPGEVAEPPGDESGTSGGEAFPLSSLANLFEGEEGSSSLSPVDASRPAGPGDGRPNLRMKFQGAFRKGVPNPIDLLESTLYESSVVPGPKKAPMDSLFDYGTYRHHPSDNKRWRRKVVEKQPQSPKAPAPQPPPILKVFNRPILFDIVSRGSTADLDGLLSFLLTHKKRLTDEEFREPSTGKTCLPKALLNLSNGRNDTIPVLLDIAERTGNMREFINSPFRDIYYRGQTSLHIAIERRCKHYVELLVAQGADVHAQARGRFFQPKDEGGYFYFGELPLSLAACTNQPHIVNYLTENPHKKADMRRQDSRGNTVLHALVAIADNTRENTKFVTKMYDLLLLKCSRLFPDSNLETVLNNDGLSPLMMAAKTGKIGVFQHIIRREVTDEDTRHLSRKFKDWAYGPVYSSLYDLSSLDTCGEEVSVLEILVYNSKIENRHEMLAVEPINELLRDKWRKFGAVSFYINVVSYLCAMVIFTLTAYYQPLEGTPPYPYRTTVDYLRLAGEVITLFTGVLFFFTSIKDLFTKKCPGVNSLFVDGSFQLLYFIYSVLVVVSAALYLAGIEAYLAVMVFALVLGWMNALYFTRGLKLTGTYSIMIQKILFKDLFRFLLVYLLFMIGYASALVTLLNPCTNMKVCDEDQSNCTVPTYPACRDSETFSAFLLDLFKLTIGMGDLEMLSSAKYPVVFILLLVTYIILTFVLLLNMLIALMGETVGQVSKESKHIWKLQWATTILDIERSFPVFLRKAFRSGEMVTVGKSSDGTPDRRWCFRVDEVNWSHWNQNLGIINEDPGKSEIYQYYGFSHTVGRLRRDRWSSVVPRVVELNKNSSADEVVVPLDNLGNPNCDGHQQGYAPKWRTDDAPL

## CC(C)C[C@H](NC(=O)c1cc2ccccc2s1)C(=O)N1CCN(C(=O)[C@H](CO)NS(=O)(=O)c2ccc(Cl)cc2Cl)CC1 [GSK1016790A, N-((1S)-1-{[4-((2S)-2-{[(2,4-dichlorophenyl)sulfonyl]amino}-3-hydroxypropanoyl)-1-piperazinyl]carbonyl}-3-methylbutyl)-1-benzothiophene-2-carboxamide]
[1]
  number of apoptotic cells: increased
  ratio of proliferating cells: decreased
[2]; Cre+ K14Cre, Trpv4f/f mice
  Bmp6 mRNA expression level: did not affect
  Fgf18 mRNA expression level: did not affect
[2]; [7]
  Fgf7 expression compared with wt mice injected with GSK1016790A: significantly decreased
  Nog expression compared with wt mice injected with GSK1016790A: significantly decreased
  Wnt16 expression compared with wt mice injected with GSK1016790A: significantly decreased
[2]; [8]
  Fgf7 expression: still increased
  Nog expression: still increased
  Wnt16 expression: still increased
[2]; [9]
  Bmp6 mRNA transcripts: significant decrease
  Fgf7 mRNA transcripts: markedly increased
  Fgf18 mRNA transcripts: significant decrease
  Nog mRNA transcripts: markedly increased
  Wnt16 mRNA transcripts: markedly increased
[2]; Trpv4−/− mice, 30 μM intradermal, 24 h
  GSK1016790A-induced changes in Bmp6, Fgf18, Fgf7, Wnt16 and Nog expression under genetic ablation of TRPV4: significantly attenuated
ERK1/2; 15 min after a single intradermal injection, skin at injection site
  ERK1/2 phosphorylation: significantly increased
Hair follicles [3]; 7-week-old wt (Trpv4+/+) mice, single intradermal injection (30 μM, 50 μl), 17 days after injection, vs vehicle
  new hair growth (newly generated hair coat) at the injection site: newly generated hair coat could be clearly observed at the injection site in a dose-dependent manner; also recorded: persistently induced hair growth
Hair follicles [3]; Cx3cr1Cre, Trpv4f/f mice vs Cre− wt littermates, single intradermal injection
  hair regeneration in macrophage-specific TRPV4 conditional KO mice: comparable hair regeneration
Hair follicles [3]; K14Cre, Trpv4f/f mice, single intradermal injection
  hair regeneration in keratinocyte-specific TRPV4 conditional KO mice: completely absent
Hair follicles [3]; Trpv4−/− mice, single intradermal injection
  GSK1016790A-induced hair regeneration in global TRPV4 KO mice: completely absent
Hair follicles [3]; wt mice, single intradermal injection, H&E of back skin, vs vehicle
  hair follicle elongation (hair follicle length): more than fourfold
Hair follicles [3]; wt mice, single intradermal injection, vehicle: telogen or anagen I
  hair cycle stage of hair follicles: most of the hair follicles had entered anagen Ill-VI phases
[4]; HaCaT cells (PMID: 29293584)
  membrane currents: activated membrane currents
[4]; HaCaT cells (PMID: 30022772)
  IL-6 production: induced
  IL-8 production: induced
Hair follicles [5]; 100 μM applied once, tape stripping of shaved back, day 12, vs vehicle
  hair growth after topical application: facilitate hair growth; also recorded: increased hair growth
Hair follicles [5]; TRPV4 ablated mice, tape stripping
  hair growth effect of topical application under genetic ablation of TRPV4 function: removed
[6]
  number of Ki67-positive K14-expressing hair follicle keratinocytes: significantly increased; also recorded: increase
  number of Ki67-positive K15-expressing hair follicle stem cells in the bulge: increased number; also recorded: increase

## O=C(NC1(c2ccccc2)CC1)c1c(CN2CCC(N3CCCCC3)CC2)c(-c2cccc(C(F)(F)F)c2)nc2cc(Br)ccc12 [GSK2193874]
[2]; GSK2193874 pretreatment, Trpv4+/+ mice
  effect of pretreatment on GSK1016790A-induced changes in Bmp6, Fgf18, Fgf7, Wnt16 and Nog expression: significantly attenuated
ERK1/2
  effect of pretreatment on GSK1016790A-induced ERK1/2 phosphorylation: severely attenuated
Hair follicles [3]; GSK2193874 25 mg·kg−1 intraperitoneal pretreatment, wt mice
  effect of pretreatment on GSK1016790A-induced hair regeneration: completely abolished
TRPV4
  normal transition of first telogen to second anagen: no effect

## COc1cccc(-c2cc(=O)c3ccccc3o2)c1N [PD98059]
[2]; PD98059 pretreatment vs vehicle control
  effect of pretreatment on GSK1016790A-induced decrease of Bmp6 and Fgf18 and increase of Fgf7, Wnt16 and Nog expression: completely reversed
ERK1/2
  effect of pretreatment on GSK1016790A-induced ERK1/2 phosphorylation: severely attenuated
Hair follicles [3]; PD98059 10 mg·kg−1 intraperitoneal pretreatment, 17 days after GSK1016790A injection
  hair growth after GSK1016790A injection in pretreated mice: completely absent
